Experiments:
healthy human volunteers = assay: Tolerability of the intravenous formulation in the crossover study (Example 3); assay type: in vivo
Procedure: (§1) Twelve healthy human volunteers were recruited. The volunteers were medication free for 48 hours before, during, and 24 hours after the administration of the study drug.
(§2) The 12 volunteers participated in a randomized, open-label, 2-way crossover study to compare the pharmacokinetics and bioavailability of oral baclofen with an intravenous baclofen formulation. The oral formulation was a 10 mg baclofen tablet. A single intravenous dose of 5 mg was administered over 15 minutes, using the commercially available 2 mg/mL intrathecal baclofen formulation (Lioresal Intrathecal). Blood samples (6 mL) for the measurement of plasma concentrations of baclofen were collected in blood collection tubes containing K2 ethylenediaminetetraacetic acid at the following times: prior to dosing; at 5, 15, and 30 minutes; and at 1, 2, 4, 6, 8, 10, 12, and 24 hours after drug administration.

[1] = Pharmacokinetics of oral and intravenous baclofen at clinically relevant doses, dose escalation crossover study (Example 4); assay type: in vivo, human; conditions: for Cmax / half-life / bioavailability: human, plasma
Procedure: (§3) Thirty-six healthy adults participated in the study.
(§4) The thirty-six subjects were enrolled in a randomized, open-label, cross over study to evaluate the safety profile and pharmacokinetics of oral and an investigational intravenous baclofen formulation at clinically relevant doses. Three cohorts of twelve subjects received single doses of baclofen: 7.5, 11.5 or 15 mg intravenously and 10, 15, or 20 mg taken orally with a 48 hour washout phase. The highest dosing cohort received an additional 15 mg extended (60 minute) infusion. Blood samples for baclofen pharmacokinetic analysis were collected pre-dose and at regular intervals over a 24 hour time period. Over this 24 hour period subjects were assessed for sedation, nystagmus and ataxia to evaluate clinical response. Maximum concentration (Cmax) and time to maximum concentration (Tmax) were determined by visual inspection. Noncompartmental pharmacokinetic analyses were used to estimate area under the curve (AUC), half life (t1/2), clearance (CL) and volume of distribution. Absolute bioavailability was calculated using dose normalized oral and intravenous AUCs. Dose proportionality was assessed using analysis of variance (ANOVA) and a power model. Bioequivalence was evaluated using Phoenix Software (Centara, Pharsight Corporation, Mountain View, Calif.).

healthy adults = assay: Tolerability/safety (sedation, nystagmus, ataxia) in the dose escalation study (Example 4); assay type: in vivo, human; conditions: for subjects with asymptomatic nystagmus: 10 minute infusion, of twelve subjects
Procedure: as §3, §4

[2] = cited from earlier work
[3] = Pharmacokinetics and bioavailability of oral vs intravenous baclofen, randomized open-label 2-way crossover study (Example 3); assay type: in vivo, human; conditions: for Cmax: single dose
Procedure: as §1, §2
Study plasma samples were prepared by adding 50 μL of a 500 μg/mL levetiracetam solution (internal standard) to 250 μL of K2 ethylenediaminetetraacetic acid (EDTA) human plasma. Baclofen and the internal standard were extracted from plasma by precipitating the protein with methanol and drying it under nitrogen at approximately 40° C. The dried residues were reconstituted in 300 μL of a mobile phase consisting of 20 mM ammonium acetate-methanol (75:25) solution. After 1 minute of vortex mixing, the reconstituted sample solution was filtered and injected onto the high-performance liquid chromatograph-mass spectrometer system. Standard curve samples over a range of 20 to 400 ng/mL baclofen and quality control samples containing 30 (low), 80 (medium), and 240 ng/mL (high) baclofen were prepared and analyzed in triplicate along with the study samples. The assay was linear over the range 20-400 ng/mL with a lower limit of quantification of 20 ng/mL.
Baclofen concentration-time data were analyzed using a noncompartmental pharmacokinetic approach with Phoenix software (version 6.2; Pharsight Corporation, Mountain View, Calif.). The terminal rate constant (λz) was determined from the slope of the terminal log-linear portion of the plasma concentration-time curve, and the terminal half-life (t1/2) was calculated as In 2/(λz). Maximum plasma concentrations (Cmax) and time to maximum concentration (Tmax) were determined by direct observation of the data. The area under the concentration-time curve to the last nonzero plasma concentration (Clast) that was above half the lower limit of quantification (10 ng/mL) was calculated by the trapezoidal rule and reported as AUClast The area under the concentration-time curve extrapolated to infinity (AUC0-∞) was calculated as AUClast+(Clast/λz). Mean and standard deviation values for the parameters were also obtained using the descriptive statistics tool in Phoenix version 6.2. A paired t-test was used to determine if statistical differences existed in log normalized, dose-adjusted area under the curve between oral and intravenous arms.

[4] = iv, 7.5 mg, IV 10 min infusion 7.5 mg, mean
[5] = iv, 11.5 mg, IV 10 min infusion 11.5 mg, mean
[6] = iv, 15 mg, IV 10 min infusion 15 mg, mean
[7] = iv, 15 mg, IV 60 min infusion 15 mg, mean
[8] = human, plasma, 5 mg IV, mean ± SD
[9] = human, plasma, 10 mg oral, mean ± SD

- Cmax ration ([1]; 15 mg intravenous infusion over 10 minutes vs oral): 263%
- Cmax ration ([1]; 15 mg intravenous infusion over 60 minutes vs oral): 149%
- AUC(0-inf) ([1]; IV 10 min infusion 7.5 mg, mean): 562 ng·h/mL
- AUC(0-inf) ([1]; IV 10 min infusion 11.5 mg, mean): 1186 ng·h/mL
- AUC(0-inf) ([1]; IV 10 min infusion 15 mg, mean): 1520 ng·h/mL
- AUC(0-inf) ([1]; IV 60 min infusion 15 mg, mean): 1447 ng·h/mL
- AUC(0-inf) ([1]; PO 10 mg, mean): 714 ng·h/mL
- AUC(0-inf) ([1]; PO 15 mg, mean): 1201 ng·h/mL
- AUC(0-inf) ([1]; PO 20 mg, mean): 1598 ng·h/mL
- dose proportionality of mean Cmax ([1]; both forms of administration, ANOVA and power model): increased proportionally with dose
- Cmax [1, 4]: 310 ng/mL
- half-life [1, 4]: 3.37 h
- Cmax [1, 5]: 524 ng/mL
- half-life [1, 5]: 4.97 h
- Cmax [1, 6]: 720 ng/mL
- half-life [1, 6]: 5.82 h
- Cmax [1, 7]: 382 ng/mL
- half-life [1, 7]: 6.22 h
- bioavailability ([1]; oral, data from all cohorts combined, read-out: mean bioavailability): 89%
- Cmax ([1]; po, 10 mg, PO 10 mg, mean): 124 ng/mL
- half-life ([1]; po, 10 mg, PO 10 mg, mean): 3.94 h
- Cmax ([1]; po, 15 mg, PO 15 mg, mean): 201 ng/mL
- half-life ([1]; po, 15 mg, PO 15 mg, mean): 4.65 h
- Cmax ([1]; po, 20 mg, PO 20 mg, mean): 255 ng/mL
- half-life ([1]; po, 20 mg, PO 20 mg, mean): 5.49 h
- bioavailability ([1]; po, data from all cohorts combined, read-out: absolute oral bioavailability, range): 42 to 132%
- bioavailability ([1]; PO 10 mg (cohort 1), mean, read-out: Bioavailability): 102%
- bioavailability ([1]; PO 15 mg (cohort 2), mean, read-out: Bioavailability): 80%
- bioavailability ([1]; PO 20 mg (cohort 3), mean, read-out: Bioavailability): 85%
- time point of observed maximum baclofen concentration ([3]; 5 mg IV formulation): 5 min
- AUC0-∞/Dose ([3]; 5 mg IV, mean ± SD): 141 ± 33 ng·h/mL/mg
- AUC0-∞/Dose ([3]; 10 mg oral, mean ± SD): 102 ± 23 ng·h/mL/mg
- T1/2 ([3]; 10 mg oral, mean ± SD): 4.03 ± 0.73 h
- half-life ([3]; human, plasma, iv, 5 mg, 5 mg IV, mean ± SD): 4.52 h
- bioavailability ([3]; human, plasma, oral, 10 mg, 10 mg oral tablet, absolute, vs 5 mg IV, mean ± SD): 74%
- half-life ([3]; human, plasma, po, 10 mg, 10 mg oral, mean ± SD): 4 h
- AUC(0-inf) [3, 8]: 707 ± 166 ng·h/mL
- AUC(0-t) [3, 8]: 593 ± 111 ng·h/mL
- AUC(0-inf) [3, 9]: 1020 ± 232 ng·h/mL
- AUC(0-t) [3, 9]: 878 ± 199 ng·h/mL
- Tmax ([3]; human, plasma, 10 mg oral, median (min, max)): 1 h
- Cmax ([3]; human, 5 mg IV over 15 minutes, plasma, mean ± SD, 12 volunteers): 310 ng/mL
- Cmax ([3]; human, 10 mg oral tablet, plasma, mean ± SD): 174 ng/mL
Structure (SMILES): NCC(CC(=O)O)c1ccc(Cl)cc1 (racemic) [Baclofen, 4-amino-3-(4-chlorophenyl) butanoic acid]
- tolerability of the intravenous formulation (healthy human volunteers; 5 mg IV over 15 minutes): well tolerated
- severity of treatment-emergent adverse events (healthy human volunteers; characterized by the investigator): mild in severity
- time for all subjects to return to baseline values after drug administration (healthy human volunteers; in vivo): ≤ 6 h
- dose proportionality of AUC ([1]; ANOVA and power model analysis): greater than proportional increase with dose
- bioequivalence of oral and intravenous doses ([1]; based on AUC and Cmax): bioequivalent based on AUC, but not based on Cmax
- subjects with asymptomatic nystagmus (healthy adults; 7.5 mg): two
- subjects with asymptomatic nystagmus (healthy adults; 11.5 mg): six
- occurrence of nystagmus (healthy adults; 15 mg 60 minute infusion): not observed
- subjects with asymptomatic nystagmus (healthy adults; 15 mg): six
- ataxia (healthy adults; after the 20 mg oral dose): one subject experienced mild transient ataxia
- tolerability (healthy adults; all oral and IV doses): generally well tolerated
- sedation, changes from baseline (healthy adults; by route of administration or by dose): not statistically significant
- adverse effects (healthy adults; following both oral and intravenous doses): Mild, self-limited adverse effects
- solubility in water [2]: slightly soluble in water

— patent publication US20170112789A1, “INTRAVENOUS BACLOFEN AND METHODS OF TREATMENT” (Allaysis, LLC, priority 2015, published 2017)
